According to paper PMC11946580, “In Vitro Enzymatic and Computational Assessments of Pyrazole–Isatin and Pyrazole–Indole Conjugates as Anti-Diabetic, Anti-Arthritic, and Anti-Inflammatory Agents” (Pharmaceutics, 2025):

Tests used:
5-LOX = target: T1, 5-LOX (Homo sapiens, UniProt P09917); assay: 5-Lipoxygenase inhibition assay (kit); settings: for 5-LOX Inhibition (%): mean ± SE, three replicates; for 5-LOX Inhibition (%): test concentration or dose not given here
T1 sequence (P09917 1-674): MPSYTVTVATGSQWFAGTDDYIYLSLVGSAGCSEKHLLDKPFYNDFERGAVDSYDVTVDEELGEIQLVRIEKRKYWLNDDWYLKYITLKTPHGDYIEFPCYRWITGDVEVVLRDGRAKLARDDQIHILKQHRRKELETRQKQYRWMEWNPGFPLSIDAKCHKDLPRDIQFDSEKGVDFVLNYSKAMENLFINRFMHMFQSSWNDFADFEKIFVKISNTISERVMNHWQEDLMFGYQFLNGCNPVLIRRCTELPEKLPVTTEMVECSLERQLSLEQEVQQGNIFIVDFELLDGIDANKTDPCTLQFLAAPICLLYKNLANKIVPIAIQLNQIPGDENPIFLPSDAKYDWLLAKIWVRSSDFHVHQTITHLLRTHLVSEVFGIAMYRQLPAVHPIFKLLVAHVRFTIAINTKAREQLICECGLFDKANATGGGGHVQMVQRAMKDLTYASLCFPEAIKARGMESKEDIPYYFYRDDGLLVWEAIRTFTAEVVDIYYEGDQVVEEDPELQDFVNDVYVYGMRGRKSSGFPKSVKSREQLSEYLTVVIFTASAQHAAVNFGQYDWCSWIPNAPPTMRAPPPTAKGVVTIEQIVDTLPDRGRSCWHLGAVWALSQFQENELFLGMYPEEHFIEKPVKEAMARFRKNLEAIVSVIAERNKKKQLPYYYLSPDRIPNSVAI

[1] = target: bovine serum albumin (BSA) (Bos taurus, UniProt P02769); settings: mean ± SE, three replicates; note: test concentration or dose not given here
bovine serum albumin (BSA), sequence (P02769 25-607): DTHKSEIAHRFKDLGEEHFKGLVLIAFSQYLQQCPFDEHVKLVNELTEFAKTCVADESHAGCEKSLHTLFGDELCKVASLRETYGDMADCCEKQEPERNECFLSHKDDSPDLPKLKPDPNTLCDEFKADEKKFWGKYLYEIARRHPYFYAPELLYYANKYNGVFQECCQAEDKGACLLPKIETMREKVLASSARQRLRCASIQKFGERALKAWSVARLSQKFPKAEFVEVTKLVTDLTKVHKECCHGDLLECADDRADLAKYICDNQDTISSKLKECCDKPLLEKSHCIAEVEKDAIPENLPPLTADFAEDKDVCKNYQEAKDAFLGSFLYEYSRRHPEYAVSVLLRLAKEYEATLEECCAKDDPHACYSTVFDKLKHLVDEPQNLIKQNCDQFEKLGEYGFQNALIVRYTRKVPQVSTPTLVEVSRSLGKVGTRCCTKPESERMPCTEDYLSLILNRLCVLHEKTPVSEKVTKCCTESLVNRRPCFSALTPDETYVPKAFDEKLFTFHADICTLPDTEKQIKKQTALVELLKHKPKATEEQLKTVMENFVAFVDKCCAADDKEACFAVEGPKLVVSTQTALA

COX-2 = target: T2, COX-2 (Homo sapiens, UniProt P35354); assay: COX-2 inhibition assay (Cayman kit); assay type: biochemical; settings: mean ± SE, three replicates
T2 construct: purchased Cayman 560131
T2 sequence (P35354 18-604): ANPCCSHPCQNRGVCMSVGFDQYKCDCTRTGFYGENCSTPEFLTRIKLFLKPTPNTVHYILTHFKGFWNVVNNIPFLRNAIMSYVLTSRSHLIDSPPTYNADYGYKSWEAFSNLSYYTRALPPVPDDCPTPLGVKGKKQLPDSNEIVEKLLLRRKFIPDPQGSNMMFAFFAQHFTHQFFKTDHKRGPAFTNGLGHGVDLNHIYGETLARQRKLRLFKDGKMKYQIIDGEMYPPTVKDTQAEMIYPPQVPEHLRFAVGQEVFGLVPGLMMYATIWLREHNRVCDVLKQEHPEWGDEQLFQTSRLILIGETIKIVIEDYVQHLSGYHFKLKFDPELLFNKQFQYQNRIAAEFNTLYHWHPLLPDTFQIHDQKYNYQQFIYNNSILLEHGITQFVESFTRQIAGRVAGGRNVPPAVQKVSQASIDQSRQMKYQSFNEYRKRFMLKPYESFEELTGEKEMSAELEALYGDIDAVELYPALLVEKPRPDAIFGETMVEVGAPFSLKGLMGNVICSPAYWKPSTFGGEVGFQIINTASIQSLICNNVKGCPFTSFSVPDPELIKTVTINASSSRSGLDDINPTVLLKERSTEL

COX-1 = target: T3, COX-1 (Ovis aries, UniProt P05979); assay: COX-1 inhibition assay (Cayman kit); settings: for COX-1 Inhibition (%): mean ± SE, three replicates; for COX-1 Inhibition (%): test concentration or dose not given here
T3 sequence (P05979 25-600): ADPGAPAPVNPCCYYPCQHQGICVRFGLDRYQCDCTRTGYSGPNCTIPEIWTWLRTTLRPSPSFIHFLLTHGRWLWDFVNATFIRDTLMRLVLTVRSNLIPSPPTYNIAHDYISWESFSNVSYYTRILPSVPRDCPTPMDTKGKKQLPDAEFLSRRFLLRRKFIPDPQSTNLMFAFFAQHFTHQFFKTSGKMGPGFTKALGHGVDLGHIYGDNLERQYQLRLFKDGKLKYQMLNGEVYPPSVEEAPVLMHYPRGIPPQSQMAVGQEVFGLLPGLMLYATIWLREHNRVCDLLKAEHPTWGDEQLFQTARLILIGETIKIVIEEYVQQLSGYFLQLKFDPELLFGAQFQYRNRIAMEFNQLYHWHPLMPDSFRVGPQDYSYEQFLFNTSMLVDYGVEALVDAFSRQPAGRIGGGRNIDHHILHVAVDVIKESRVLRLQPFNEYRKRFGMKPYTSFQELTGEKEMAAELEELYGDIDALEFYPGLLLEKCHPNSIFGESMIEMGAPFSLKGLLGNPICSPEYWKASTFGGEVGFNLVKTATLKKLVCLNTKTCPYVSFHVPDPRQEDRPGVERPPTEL

[2] = target: cyclooxygenase-1 (COX-1) enzyme; set-up: method as in PMID 37985602; settings: cited from earlier work
[3] = target: cyclooxygenase-2 (COX-2) enzyme; set-up: method as in PMID 37985602; settings: cited from earlier work
[4] = set-up: method as in doi:10.1007/s11164-024-05318-1; settings: read-out: antioxidant activities IC50; cited from earlier work
α-glucosidase enzyme = target: α-glucosidase enzyme; set-up: method as in PMID 38225280; settings: cited from earlier work
[5] = test system: pancreatic cancer (PaCa-2) cells; set-up: method as in PMID 39193301; settings: cited from earlier work
α-amylase enzyme = target: α-amylase enzyme; set-up: method as in PMID 34600331; settings: cited from earlier work

CCN1C(=O)/C(=N\c2[nH]nc(Nc3ccccc3)c2C(=O)Nc2ccc(C)cc2)c2ccccc21 [12f]
IC50 (5-LOX): 44 µM | 5-LOX Inhibition (%) (5-LOX): 11.01 ± 0.04% | Protein Denaturation Inhibition (%) [1]: 15.36 ± 0.03% | COX-2 Inhibition (%) (COX-2): 21.16 ± 0.04% | IC50 (COX-2): 39.4 µM | IC50 (COX-1): 43.2 µM | COX-1 Inhibition (%) (COX-1): 18.91 ± 0.04%

O=C(Nc1cc(-c2ccccc2)nn1-c1ccccc1)c1ccc(/C=C/C(=O)c2ccc(Cl)s2)cc1 [compound 2]
IC50 [2]: 10.2 µM | IC50 [3]: 1.76 µM

COc1ccc(Nc2n[nH]c(N=Cc3c[nH]c4ccccc34)c2C(=O)Nc2ccc(C)cc2)cc1 [14d]
IC50 (5-LOX): 26.7 µM | 5-LOX Inhibition (%) (5-LOX): 27.73 ± 0.26% | Protein Denaturation Inhibition (%) [1]: 26.50 ± 0.17% | COX-2 Inhibition (%) (COX-2): 37.88 ± 0.26% | IC50 (COX-2): 22 µM | IC50 (COX-1): 22.9 µM | COX-1 Inhibition (%) (COX-1): 35.63 ± 0.26%

CCN1C(=O)C(=Nc2[nH]nc(Nc3ccc(OC)cc3)c2C(=O)Nc2ccccc2)c2ccccc21 [12g]
IC50 (5-LOX): 38.9 µM | 5-LOX Inhibition (%) (5-LOX): 13.25 ± 0.04% | Protein Denaturation Inhibition (%) [1]: 16.85 ± 0.03% | COX-2 Inhibition (%) (COX-2): 23.40 ± 0.04% | IC50 (COX-2): 34.4 µM | IC50 (COX-1): 37.4 µM | COX-1 Inhibition (%) (COX-1): 21.15 ± 0.04%

Cc1ccc(NC(=O)c2c(Nc3ccccc3)n[nH]c2N=C2C(=O)N(C)c3ccccc32)cc1 [12b]
IC50 (5-LOX): 45.7 µM | 5-LOX Inhibition (%) (5-LOX): 10.85 ± 0.04% | Protein Denaturation Inhibition (%) [1]: 15.25 ± 0.03% | COX-2 Inhibition (%) (COX-2): 21.00 ± 0.04% | IC50 (COX-2): 40.9 µM | IC50 (COX-1): 44.9 µM | COX-1 Inhibition (%) (COX-1): 18.75 ± 0.04%

COc1cc(C=NNC(=S)NN=C2C(=O)Nc3ccc(I)cc32)ccc1O [compound 5]
IC50 [4]: 9.76 ± 0.03 µM

Cc1cc(-c2nnc(S)n2N)n[nH]1 [compound 1]
IC50 (α-glucosidase enzyme): 95.85 ± 0.92 µM

COc1ccc(Nc2n[nH]c(N=C3C(=O)N(C)c4ccccc43)c2C(=O)Nc2ccccc2)cc1 [12c]
IC50 (5-LOX): 40.4 µM | 5-LOX Inhibition (%) (5-LOX): 13.08 ± 0.04% | Protein Denaturation Inhibition (%) [1]: 16.73 ± 0.03% | COX-2 Inhibition (%) (COX-2): 23.23 ± 0.04% | IC50 (COX-2): 35.8 µM | IC50 (COX-1): 38.8 µM | COX-1 Inhibition (%) (COX-1): 20.98 ± 0.04%

CC(c1cc2ccccc2s1)N(O)C(N)=O (centres unmarked) [Zileuton, reference compound]
5-LOX Inhibition (%) (5-LOX): 72.61 ± 0.07%

O=C(Nc1ccccc1)c1c(Nc2ccccc2)n[nH]c1N=Cc1c[nH]c2ccccc12 [14a]
IC50 (5-LOX): 21.9 µM | 5-LOX Inhibition (%) (5-LOX): 44.89 ± 0.26% | Protein Denaturation Inhibition (%) [1]: 37.94 ± 0.17% | COX-2 Inhibition (%) (COX-2): 55.04 ± 0.26% | IC50 (COX-2): 16.7 µM | IC50 (COX-1): 17.1 µM | COX-1 Inhibition (%) (COX-1): 52.79 ± 0.26%

COc1ccc(Nc2n[nH]c(N=Cc3c[nH]c4ccccc34)c2C(=O)Nc2ccccc2)cc1 [14c]
IC50 (5-LOX): 27.8 µM | 5-LOX Inhibition (%) (5-LOX): 27.17 ± 0.26% | Protein Denaturation Inhibition (%) [1]: 26.13 ± 0.17% | COX-2 Inhibition (%) (COX-2): 37.32 ± 0.26% | IC50 (COX-2): 23 µM | IC50 (COX-1): 24 µM | COX-1 Inhibition (%) (COX-1): 35.07 ± 0.26%

CCc1nn(-c2ccc([N+](=O)[O-])cc2)c(C)c1C(=O)/C=C/c1ccccc1 [compound 3]
PaCa-2 cells IC50 [5]: 13.0 µg/mL | cell cycle effect in treated PaCa-2 cells [5]: induces cell cycle arrest at the S and G2/M phases

CN1C(=O)C(=Nc2[nH]nc(Nc3ccccc3)c2C(=O)Nc2ccccc2)c2ccccc21 [12a]
IC50 (5-LOX): 49.9 µM | 5-LOX Inhibition (%) (5-LOX): 9.57 ± 0.04% | Protein Denaturation Inhibition (%) [1]: 14.40 ± 0.03% | COX-2 Inhibition (%) (COX-2): 19.72 ± 0.04% | IC50 (COX-2): 45 µM | IC50 (COX-1): 49.8 µM | COX-1 Inhibition (%) (COX-1): 17.47 ± 0.04%

CCC(=O)CN1C(=O)/C(=N/NC(=O)c2ccc(Br)cc2)c2ccccc21 [compound 4]
α-amylase IC50 (α-amylase enzyme): 19.6 µg/mL

CCN1C(=O)C(=Nc2[nH]nc(Nc3ccc(OC)cc3)c2C(=O)Nc2ccc(C)cc2)c2ccccc21 [12h]
IC50 (5-LOX): 38.7 µM | 5-LOX Inhibition (%) (5-LOX): 12.66 ± 0.04% | Protein Denaturation Inhibition (%) [1]: 16.45 ± 0.03% | COX-2 Inhibition (%) (COX-2): 22.81 ± 0.04% | IC50 (COX-2): 34.3 µM | IC50 (COX-1): 37.3 µM | COX-1 Inhibition (%) (COX-1): 20.56 ± 0.04%

COc1ccc(Nc2n[nH]c(N=C3C(=O)N(C)c4ccccc43)c2C(=O)Nc2ccc(C)cc2)cc1 [12d]
IC50 (5-LOX): 39.4 µM | 5-LOX Inhibition (%) (5-LOX): 12.90 ± 0.04% | Protein Denaturation Inhibition (%) [1]: 16.62 ± 0.03% | COX-2 Inhibition (%) (COX-2): 23.05 ± 0.04% | IC50 (COX-2): 35 µM | IC50 (COX-1): 38 µM | COX-1 Inhibition (%) (COX-1): 20.80 ± 0.04%

CCN1C(=O)C(=Nc2[nH]nc(Nc3ccccc3)c2C(=O)Nc2ccccc2)c2ccccc21 [12e]
IC50 (5-LOX): 48 µM | 5-LOX Inhibition (%) (5-LOX): 9.72 ± 0.04% | Protein Denaturation Inhibition (%) [1]: 14.50 ± 0.03% | COX-2 Inhibition (%) (COX-2): 19.87 ± 0.04% | IC50 (COX-2): 43.3 µM | IC50 (COX-1): 47.8 µM | COX-1 Inhibition (%) (COX-1): 17.62 ± 0.04%

Cc1ccc(NC(=O)c2c(Nc3ccccc3)n[nH]c2N=Cc2c[nH]c3ccccc23)cc1 [14b]
IC50 (5-LOX): 17.3 µM | 5-LOX Inhibition (%) (5-LOX): 61.93 ± 0.26% | Protein Denaturation Inhibition (%) [1]: 49.30 ± 0.17% | COX-2 Inhibition (%) (COX-2): 72.08 ± 0.26% | IC50 (COX-2): 12.4 µM | IC50 (COX-1): 12.5 µM | COX-1 Inhibition (%) (COX-1): 69.83 ± 0.26%
